Laboratory results: patent publication US20260027163A1, “GUT MICROBIOME BACTERIA AND ENZYMES THAT METABOLIZE DIETARY AND MEDICINAL PLANT SMALL MOLECULES TO AFFECT GUT MICROBIOME” (The Children's Medical Center Corporation, priority 2022, published 2026)

What was measured:
[1] = test system: macrophages stimulated with pro-inflammatory LP5; assay: Inflammatory cytokine production by stimulated macrophages after saligenin pre-treatment; format: cell-based; settings: in vitro, FIGS. 1A-1B
[2] = target: T1, AhR (Homo sapiens, UniProt P35869); assay: Activation of xenobiotic sensor AhR; format: cell-based; settings: FIG. 4
T1 sequence (P35869 11-848): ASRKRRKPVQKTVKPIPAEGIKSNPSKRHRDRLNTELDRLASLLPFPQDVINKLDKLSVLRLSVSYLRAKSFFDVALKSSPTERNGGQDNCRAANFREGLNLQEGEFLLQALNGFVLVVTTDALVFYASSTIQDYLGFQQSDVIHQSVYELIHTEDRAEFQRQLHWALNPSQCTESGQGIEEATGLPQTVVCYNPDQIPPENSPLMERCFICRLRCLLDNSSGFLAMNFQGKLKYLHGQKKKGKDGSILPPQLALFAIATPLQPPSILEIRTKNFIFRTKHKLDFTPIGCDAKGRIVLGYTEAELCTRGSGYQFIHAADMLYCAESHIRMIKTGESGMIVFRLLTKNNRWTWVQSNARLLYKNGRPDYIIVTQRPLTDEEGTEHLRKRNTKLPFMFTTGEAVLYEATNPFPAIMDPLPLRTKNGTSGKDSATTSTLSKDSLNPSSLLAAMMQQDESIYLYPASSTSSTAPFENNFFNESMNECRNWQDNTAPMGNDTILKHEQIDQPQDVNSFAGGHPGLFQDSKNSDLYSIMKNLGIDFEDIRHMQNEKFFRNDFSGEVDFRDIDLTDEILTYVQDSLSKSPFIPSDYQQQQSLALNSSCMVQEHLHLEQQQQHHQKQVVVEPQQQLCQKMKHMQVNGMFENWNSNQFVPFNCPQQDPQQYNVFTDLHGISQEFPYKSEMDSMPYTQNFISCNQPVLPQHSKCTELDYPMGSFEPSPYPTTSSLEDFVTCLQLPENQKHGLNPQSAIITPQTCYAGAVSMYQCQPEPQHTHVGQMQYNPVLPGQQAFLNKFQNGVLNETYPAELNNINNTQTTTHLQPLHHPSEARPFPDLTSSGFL
From the text: Saligenin […] AhR, a xenobiotic immune sensor that drives pro-homeostatic processes in gut epithelia and immune cells.

[3] = test system: DSS-induced intestinal inflammation; assay: DSS-induced colitis, pure compound delivered orally; format: in vivo, mice
From the text: (§1) The present disclosure identifies and characterizes a novel mechanism by which the gut microbiome transforms abundant and chemically diverse small molecule components of human diet to drive pro-homeostatic programs in the intestine.

[4] = target: T2, AhR (Mus musculus, UniProt P30561); assay: In vivo AhR activation in colitis, reversal with competitive AhR antagonist; settings: FIG. 9
T2 construct: endogenous in cells
T2 sequence (P30561 10-848): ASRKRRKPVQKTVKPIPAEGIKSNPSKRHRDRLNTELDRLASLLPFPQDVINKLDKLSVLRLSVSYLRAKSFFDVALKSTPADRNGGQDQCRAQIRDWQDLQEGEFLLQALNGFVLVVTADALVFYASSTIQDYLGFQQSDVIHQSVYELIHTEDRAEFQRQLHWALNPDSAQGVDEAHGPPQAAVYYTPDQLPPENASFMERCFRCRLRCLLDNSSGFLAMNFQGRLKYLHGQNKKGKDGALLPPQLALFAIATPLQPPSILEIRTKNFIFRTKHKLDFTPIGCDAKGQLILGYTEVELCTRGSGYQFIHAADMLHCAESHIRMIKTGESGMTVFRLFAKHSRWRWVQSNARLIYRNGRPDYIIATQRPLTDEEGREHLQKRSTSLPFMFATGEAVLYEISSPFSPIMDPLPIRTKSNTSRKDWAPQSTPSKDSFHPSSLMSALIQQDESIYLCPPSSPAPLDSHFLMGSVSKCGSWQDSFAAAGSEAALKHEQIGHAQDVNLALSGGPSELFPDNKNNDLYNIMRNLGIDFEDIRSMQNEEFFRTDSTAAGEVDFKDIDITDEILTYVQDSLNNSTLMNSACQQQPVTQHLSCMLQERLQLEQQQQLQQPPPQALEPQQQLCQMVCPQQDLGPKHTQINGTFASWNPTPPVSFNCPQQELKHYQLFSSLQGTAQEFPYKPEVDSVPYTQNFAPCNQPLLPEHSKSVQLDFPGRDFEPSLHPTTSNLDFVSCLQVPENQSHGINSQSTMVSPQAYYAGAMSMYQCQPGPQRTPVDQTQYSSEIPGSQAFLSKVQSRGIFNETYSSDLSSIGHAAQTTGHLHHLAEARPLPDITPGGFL
From the text: as §1

[5] = test system: DSS-induced colitis; assay: DSS-induced colitis, bioactivation of salicin by Bacteroides uniformis; format: in vivo; settings: salicin bioactivated to saligenin by Bacteroides uniformis; FIGS. 7A-7B
From the text: as §1

## OCc1ccccc1O [saligenin]
[1]
  inflammatory cytokine production: attenuated inflammatory cytokine production
[2]
  AhR activation: activated
[3]; DSS exposure, FIGS. 6A-6B
  Th1-effector cells: decrease in Th1-effector cells
[3]; DSS exposure, FIGS. 11A-11B
  colonic IFN-gamma: decrease in colonic IFN-gamma
[3]; pure compound delivered orally daily for 7 days, mice, FIGS. 8A-8B
  protection against DSS-induced intestinal inflammation: protected against DSS-induced intestinal inflammation
[4]
  AhR activation in vivo, reversibility by antagonist: can be reversed with a competitive AhR antagonist

## OCc1ccccc1O[C@@H]1O[C@H](CO)[C@@H](O)[C@H](O)[C@H]1O [salicin]
[5]
  protection against DSS-induced colitis: protected against DSS-induced colitis
